The source of these data is ChEMBL document CHEMBL2069245 (Bioorg Med Chem Lett, 2012).

In brackets after ≈: the same amount, converted by molar mass.

Targets include Cytochrome P450 2D6 (Homo sapiens, UniProt P10635); Cytochrome P450 3A4 (Homo sapiens, UniProt P08684); Cytochrome P450 2C19 (Homo sapiens, UniProt P33261); Cytochrome P450 2C9 (Homo sapiens, UniProt P11712).
The target of a further data set is T1, Cytochrome P450 1A2 (Homo sapiens, UniProt P05177).
T1 sequence (P05177 whole entry): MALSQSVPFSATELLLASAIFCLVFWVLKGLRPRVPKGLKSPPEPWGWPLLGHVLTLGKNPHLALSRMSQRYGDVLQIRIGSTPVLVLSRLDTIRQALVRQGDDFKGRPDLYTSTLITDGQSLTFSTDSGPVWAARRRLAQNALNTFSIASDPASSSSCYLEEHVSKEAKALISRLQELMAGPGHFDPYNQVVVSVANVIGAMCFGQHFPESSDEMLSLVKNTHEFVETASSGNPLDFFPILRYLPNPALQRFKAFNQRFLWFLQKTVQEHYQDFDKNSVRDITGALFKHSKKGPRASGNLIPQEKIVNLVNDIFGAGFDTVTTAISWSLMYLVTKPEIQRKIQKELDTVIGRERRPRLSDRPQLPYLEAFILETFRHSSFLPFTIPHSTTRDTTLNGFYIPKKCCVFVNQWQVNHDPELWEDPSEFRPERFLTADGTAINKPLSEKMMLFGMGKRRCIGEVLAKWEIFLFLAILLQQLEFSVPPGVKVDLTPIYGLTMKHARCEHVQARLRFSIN

Data set [1] concerns the target T2, Neuropeptide Y receptor type 5 (Mus musculus, UniProt O70342).
T2 sequence (O70342 whole entry): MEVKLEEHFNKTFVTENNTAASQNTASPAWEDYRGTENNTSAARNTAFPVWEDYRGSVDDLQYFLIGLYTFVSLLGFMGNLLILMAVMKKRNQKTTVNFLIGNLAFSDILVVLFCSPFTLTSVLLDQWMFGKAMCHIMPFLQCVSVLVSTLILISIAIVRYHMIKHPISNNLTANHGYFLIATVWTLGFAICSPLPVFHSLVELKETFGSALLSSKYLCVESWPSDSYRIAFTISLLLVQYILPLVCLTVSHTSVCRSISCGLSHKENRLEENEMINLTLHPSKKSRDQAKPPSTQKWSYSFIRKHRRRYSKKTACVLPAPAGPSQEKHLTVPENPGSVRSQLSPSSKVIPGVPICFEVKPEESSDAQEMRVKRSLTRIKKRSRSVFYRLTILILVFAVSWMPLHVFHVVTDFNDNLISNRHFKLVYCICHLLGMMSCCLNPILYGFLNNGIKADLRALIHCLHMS
The data set can be described thus: Displacement of [125I]PYY from mouse NPY Y5 receptor. (In general: Displacement assays read how much labelled ligand stays bound in the presence of the test substance.)

The next data set can be described thus: physchem. The note with it: 1% DMSO, pH 6.8.
Data set [2] is described as follows: in vitro. The note with it: rat, liver microsomes. On the technique in general: Liver microsomes are vesicles of endoplasmic reticulum, rich in cytochrome P450 enzymes.
Data set [3] is described as follows: in vitro. The note with it: human, liver microsomes.

Cytochrome P450 2C9, sequence (P11712 whole entry): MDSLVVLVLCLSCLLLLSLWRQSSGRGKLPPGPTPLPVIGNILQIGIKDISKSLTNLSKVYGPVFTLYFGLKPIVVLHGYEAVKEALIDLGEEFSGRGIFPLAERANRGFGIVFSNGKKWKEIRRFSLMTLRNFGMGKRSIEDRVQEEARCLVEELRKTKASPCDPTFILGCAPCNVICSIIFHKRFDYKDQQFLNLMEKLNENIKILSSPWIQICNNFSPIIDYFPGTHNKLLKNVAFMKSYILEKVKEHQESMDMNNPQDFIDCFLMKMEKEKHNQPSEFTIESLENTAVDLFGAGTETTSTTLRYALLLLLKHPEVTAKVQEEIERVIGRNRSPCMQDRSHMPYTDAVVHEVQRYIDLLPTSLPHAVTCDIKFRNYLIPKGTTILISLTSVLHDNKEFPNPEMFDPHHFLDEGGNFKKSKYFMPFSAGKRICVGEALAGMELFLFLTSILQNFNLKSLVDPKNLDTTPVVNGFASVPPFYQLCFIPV
Cytochrome P450 2C19, sequence (P33261 whole entry): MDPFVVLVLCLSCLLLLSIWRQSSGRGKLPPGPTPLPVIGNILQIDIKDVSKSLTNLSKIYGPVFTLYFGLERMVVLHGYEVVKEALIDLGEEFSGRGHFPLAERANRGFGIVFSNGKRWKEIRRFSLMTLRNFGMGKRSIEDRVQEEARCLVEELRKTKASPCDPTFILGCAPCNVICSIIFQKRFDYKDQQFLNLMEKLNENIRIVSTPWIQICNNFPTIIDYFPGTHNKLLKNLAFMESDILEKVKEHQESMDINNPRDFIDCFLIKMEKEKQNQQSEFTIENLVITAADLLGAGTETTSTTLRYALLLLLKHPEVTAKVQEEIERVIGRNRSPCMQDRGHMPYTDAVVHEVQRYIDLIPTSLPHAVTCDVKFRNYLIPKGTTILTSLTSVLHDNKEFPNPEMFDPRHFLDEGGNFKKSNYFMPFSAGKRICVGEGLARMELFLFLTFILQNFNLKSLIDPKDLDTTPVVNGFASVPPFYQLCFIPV
Cytochrome P450 2D6, sequence (P10635 whole entry): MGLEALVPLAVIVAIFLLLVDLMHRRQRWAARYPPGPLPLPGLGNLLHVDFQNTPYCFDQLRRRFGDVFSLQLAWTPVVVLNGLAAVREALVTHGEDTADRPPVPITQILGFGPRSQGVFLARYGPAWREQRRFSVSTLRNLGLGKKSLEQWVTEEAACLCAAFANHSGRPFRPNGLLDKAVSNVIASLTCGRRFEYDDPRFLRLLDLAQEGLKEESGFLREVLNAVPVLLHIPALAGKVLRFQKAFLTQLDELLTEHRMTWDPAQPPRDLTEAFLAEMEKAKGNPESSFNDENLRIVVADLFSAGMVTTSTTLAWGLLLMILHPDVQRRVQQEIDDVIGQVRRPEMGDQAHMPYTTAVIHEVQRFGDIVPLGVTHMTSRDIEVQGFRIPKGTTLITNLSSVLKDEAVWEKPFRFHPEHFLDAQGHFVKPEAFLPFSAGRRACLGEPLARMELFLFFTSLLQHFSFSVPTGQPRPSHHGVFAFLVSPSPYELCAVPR
Cytochrome P450 3A4, sequence (P08684 whole entry): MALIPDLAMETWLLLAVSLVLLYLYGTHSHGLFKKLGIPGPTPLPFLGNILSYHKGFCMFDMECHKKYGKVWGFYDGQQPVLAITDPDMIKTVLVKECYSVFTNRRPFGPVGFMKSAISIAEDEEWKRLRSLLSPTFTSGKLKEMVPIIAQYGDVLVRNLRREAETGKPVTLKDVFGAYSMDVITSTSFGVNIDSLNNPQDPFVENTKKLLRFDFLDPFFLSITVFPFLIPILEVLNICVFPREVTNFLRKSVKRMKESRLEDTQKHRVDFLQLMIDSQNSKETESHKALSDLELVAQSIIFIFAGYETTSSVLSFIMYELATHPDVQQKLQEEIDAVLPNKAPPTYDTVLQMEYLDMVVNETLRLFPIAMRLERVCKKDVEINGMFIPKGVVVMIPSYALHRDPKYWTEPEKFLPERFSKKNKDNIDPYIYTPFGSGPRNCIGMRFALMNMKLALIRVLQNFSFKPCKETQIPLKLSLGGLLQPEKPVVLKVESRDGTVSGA

In the case of `CCS(=O)(=O)c1ccc2nc(-c3ccc(C)c(-c4ccccc4)c3)[nH]c2c1`, the IC50 on Cytochrome P450 2D6 is above 20 µM; on Cytochrome P450 1A2 it was 3.2 µM; on Cytochrome P450 3A4, 5.7 µM.

Consider `CCS(=O)(=O)c1ccc2[nH]c(-c3cccc(-c4ccccc4)c3)nc2c1`, for which the IC50 in [1] stood at 0.00046 µM.

With `CCCS(=O)(=O)c1ccc2nc(-c3ccccc3)[nH]c2c1`, the kinetic solubility in the data set “physchem” is above 50 µM. Also, the IC50 at Cytochrome P450 2D6 is above 20 µM; at Cytochrome P450 1A2 it was 2.9 µM; in data set [1], 4.66 µM; on Cytochrome P450 3A4, above 20 µM.

On to `CCCS(=O)(=O)c1ccc2[nH]c(-c3ccccc3-c3ccccc3)nc2c1`, for which the solubility (kinetic) in “physchem” amounted to 23.6 µM (≈ 8.88 µg/mL). In addition, the IC50 is 15 µM on Cytochrome P450 2D6; above 20 µM against Cytochrome P450 2C19; 4.5 µM at Cytochrome P450 2C9; above 20 µM at Cytochrome P450 1A2; 4.06 µM in data set [1]; 11 µM against Cytochrome P450 3A4.

In the case of `CCCS(=O)(=O)c1ccc2[nH]c(-c3cccc(-c4ccccc4)c3)nc2c1`, the share remaining at 0.5 h in the data set “in vitro [2]” worked out at 57.1%; in “in vitro [3]” it was 68.6%. This compound displayed a kinetic solubility in “physchem” of 0.5 µM (≈ 0.188 µg/mL). Besides, the IC50 is above 20 µM against Cytochrome P450 2D6, 2.7 µM on Cytochrome P450 1A2, 0.00043 µM in data set [1] and 6 µM on Cytochrome P450 3A4.

For the compound `CCCS(=O)(=O)c1ccc2nc(-c3ccc(-c4ccccc4)cc3)[nH]c2c1`, the half-maximal inhibitory concentration (IC50) against Cytochrome P450 2D6 was 15 µM; against Cytochrome P450 1A2 it was above 20 µM; at Cytochrome P450 3A4, 2.9 µM.

As for `CCCS(=O)(=O)c1ccc2nc(-c3cccc(C(F)(F)F)c3)[nH]c2c1`, the IC50 was above 20 µM on Cytochrome P450 2D6, 0.4 µM against Cytochrome P450 1A2 and 20 µM at Cytochrome P450 3A4.

`CCCS(=O)(=O)c1ccc2nc(-c3cccc(OC(F)(F)F)c3)[nH]c2c1` gave a concentration for half-maximal inhibition (IC50) in data set [1] of 0.0019 µM.

Consider `CCS(=O)(=O)c1ccc2nc(-c3cccc(-c4ccccc4)c3F)[nH]c2c1`, for which, in the data set “physchem”, the solubility (kinetic) stood at 0.6 µM (≈ 0.228 µg/mL). Also, the IC50 against Cytochrome P450 2D6 is above 20 µM; at Cytochrome P450 1A2, 1.1 µM; in [1], 0.0027 µM; at Cytochrome P450 3A4, 6.6 µM.

For the compound `CCS(=O)(=O)c1ccc2[nH]c(-c3cc(-c4ccccc4)ccc3F)nc2c1`, in data set [1], the IC50 is 0.00054 µM.

Take `CCS(=O)(=O)c1ccc2nc(-c3ccc(F)c(-c4ccccc4)c3)[nH]c2c1`: the kinetic solubility in “physchem” worked out at 0.2 µM (≈ 0.0761 µg/mL). Also, the IC50 against Cytochrome P450 2D6 came to 16 µM; on Cytochrome P450 1A2 it was 3.4 µM; in data set [1], 0.00016 µM; on Cytochrome P450 3A4 it was 5.6 µM.

The compound `CCS(=O)(=O)c1ccc2[nH]c(-c3cccc(-c4ccccc4)c3Cl)nc2c1` came in with a solubility (kinetic) in “physchem” of 1.5 µM (≈ 0.595 µg/mL). The IC50 is 18 µM against Cytochrome P450 2D6, 3 µM against Cytochrome P450 1A2, 0.0405 µM in data set [1] and 3.8 µM at Cytochrome P450 3A4.

As for `CCS(=O)(=O)c1ccc2nc(-c3cc(-c4ccccc4)ccc3Cl)[nH]c2c1`, the kinetic solubility in “physchem” worked out at 0.4 µM (≈ 0.159 µg/mL). Besides, the IC50 was 15 µM on Cytochrome P450 2D6, 0.4 µM at Cytochrome P450 1A2, 0.0311 µM in data set [1] and 5 µM at Cytochrome P450 3A4.

As to `CCS(=O)(=O)c1ccc2[nH]c(-c3ccc(Cl)c(-c4ccccc4)c3)nc2c1`, the IC50 came out at 18 µM against Cytochrome P450 2D6, 8.5 µM on Cytochrome P450 1A2, 0.00016 µM in [1] and 2.6 µM against Cytochrome P450 3A4.

In the case of `CCS(=O)(=O)c1ccc2nc(-c3cccc(-c4ccccc4)c3C)[nH]c2c1`, the kinetic solubility in “physchem” came to 3.2 µM (≈ 1.2 µg/mL). Also, the half-maximal inhibitory concentration (IC50) against Cytochrome P450 2D6 was above 20 µM; at Cytochrome P450 1A2 it was 7.8 µM; in [1], 0.0218 µM; on Cytochrome P450 3A4, 5.2 µM.

`CCS(=O)(=O)c1ccc2nc(-c3cc(-c4ccccc4)ccc3C)[nH]c2c1`: in the data set “physchem”, the kinetic solubility came out at 0.5 µM (≈ 0.188 µg/mL). Moreover, the results for the IC50 (on Cytochrome P450 2D6; on Cytochrome P450 1A2; in data set [1]) were 14 µM, 0.4 µM and 0.383 µM, respectively.

For the compound `CCS(=O)(=O)c1ccc2[nH]c(-c3cccc(-c4ccccc4)n3)nc2c1`, the IC50 in data set [1] worked out at 0.0389 µM.

The compound `CCS(=O)(=O)c1ccc2nc(-c3cc(-c4ccccc4)ccn3)[nH]c2c1` returned a concentration for half-maximal inhibition (IC50) in data set [1] of 0.00055 µM.

`CCS(=O)(=O)c1ccc2[nH]c(-c3cncc(-c4ccccc4)c3)nc2c1`: the IC50 against Cytochrome P450 2D6 was above 20 µM; against Cytochrome P450 1A2, 6.3 µM; on Cytochrome P450 3A4 it was 7.8 µM.

Consider `CCS(=O)(=O)c1ccc2[nH]c(-c3ccnc(-c4ccccc4)c3)nc2c1`, for which the solubility (kinetic) in “physchem” amounted to 20.3 µM (≈ 7.38 µg/mL). Moreover, the IC50 against Cytochrome P450 2D6 is above 20 µM; on Cytochrome P450 1A2, 3.4 µM; in [1], 0.00031 µM; at Cytochrome P450 3A4 it was 8.7 µM.

On to `CCCS(=O)(=O)c1ccc2[nH]c(-c3ccc(=O)n(-c4ccccc4)c3)nc2c1`, for which the values for the amount remaining at 0.5 h in “in vitro [2]” and in the data set “in vitro [3]” were 78.6% and 88.5%, respectively. Moreover, the IC50 against Cytochrome P450 2D6, against Cytochrome P450 2C19, against Cytochrome P450 2C9, against Cytochrome P450 1A2 and against Cytochrome P450 3A4 was above 20 µM each time.

As to `CC(C)(C)S(=O)(=O)c1ccc2nc(-c3ccc(=O)n(-c4ccccc4)c3)[nH]c2c1`, the share remaining at 0.5 h in “in vitro [2]” was above 99.9%; in “in vitro [3]”, 94.2%. This compound gave a kinetic solubility in the data set “physchem” of 9.4 µM (≈ 3.83 µg/mL). The IC50 at Cytochrome P450 2D6 is above 20 µM; at Cytochrome P450 1A2 it was above 20 µM; in data set [1], 0.0075 µM; on Cytochrome P450 3A4, above 20 µM.

`O=c1ccc(-c2nc3ccc(S(=O)(=O)C(F)(F)F)cc3[nH]2)cn1-c1ccccc1` displayed an IC50 in [1] of 0.0025 µM.

`O=c1ccc(-c2nc3cc(S(=O)(=O)CC(F)(F)F)ccc3[nH]2)cn1-c1ccccc1`: the fraction remaining at 0.5 h in the data set “in vitro [2]” is 93.6%; in the data set “in vitro [3]”, 94.7%. In addition, in the data set “physchem”, the solubility (kinetic) came out at 7.7 µM (≈ 3.34 µg/mL). Also, the IC50 was above 20 µM at Cytochrome P450 2D6, above 20 µM against Cytochrome P450 1A2, 0.00029 µM in data set [1] and above 20 µM on Cytochrome P450 3A4.

In “physchem”, `CCCS(=O)(=O)c1ccc2nc(-c3cn(-c4ccccc4)ccc3=O)[nH]c2c1` yielded a solubility (kinetic) of 2 µM (≈ 0.787 µg/mL). Further, the IC50 was above 20 µM on Cytochrome P450 2D6; above 20 µM on Cytochrome P450 2C19; above 20 µM against Cytochrome P450 2C9; above 20 µM on Cytochrome P450 1A2; 0.579 µM in [1]; above 20 µM against Cytochrome P450 3A4.

For the compound `CCCS(=O)(=O)c1ccc2[nH]c(-c3cccn(-c4ccccc4)c3=O)nc2c1`, the IC50 against Cytochrome P450 2D6, at Cytochrome P450 2C19, against Cytochrome P450 2C9, at Cytochrome P450 1A2 and on Cytochrome P450 3A4 was above 20 µM throughout.

As a reminder, the IC50 is the concentration needed to halve the response being measured. A low value points to greater potency in that assay. Usually kinetic solubility stands for solubility judged after dilution from a stock solution rather than from solid. For orientation: fraction remaining means what is left of the initial amount, in per cent. The low end stands for a greater loss, the high end for greater stability.
